Measurements reported in patent publication US6677310B1, “Ring-expanded nucleosides and nucleotides” (Nabi, priority 1999, dated 2004).
Values after ≈ are worked out from the molar mass of the structure shown. Like-named read-outs stand apart in the source and are kept apart here.

Tests used:
[1] = system: Hepatitis B virus (HBV); experiment: Anti-HBV assay in 2.2.15 cells (virion DNA, HBV RI); assay type: cell-based; conditions: 9 days; for EC90: 10 fold inhibition
Experimental: The anti-HBV assays were performed according to the published protocol of Korba and Milman, (Korba, B. E.; Milman, G. Antiviral Res., 15, 217 1991), using cultures of 2.2.15 cells. In brief, the assay consisted of (a) seeding the chronically HBV-producing human liver cells (Acs et al. Proc. Nat. Acad. Sci., 84, 464 1987) into 24-well tissue culture plates, and growing to confluence, (b) adding test compounds daily for a continuous 9-day period, harvesting culture media after day 9 and (c) lysing treated cells 24 hours following day 9 of treatment for the analysis of extracellular virion DNA and intracellular HBV genomic forms.
Anti-HBV activity and the toxicity against confluent 2.2.15 cells were determined by the previously described procedure (Korba, B. E., et al. Antivir. Res., 19:55-70, 1992; Korba, B. E., et al. Antivir. Res., 15:217-228, 1991). Briefly, confluent cultures of HBV transfected 2.2.15 cells were maintained on either 96-well or 24-well flat-bottomed tissue culture plates in RPMI 1640 medium with 2% fetal bovine serum (FBS). The cells were treated with test compounds daily for nine consecutive days. The culture media were harvested on day 9 to quantify the amount of virion DNA. On day 10, the cells were lysed to quantify the amount of intracellular HBV replicative intermediates (RI). The quantification of virion DNA and the HBV RI were done by blot hybridization methods (Korba, B. E., et al. Antivir. Res., 19:55-70, 1992; Korba, B. E., et al. Antivir. Res., 15:217-228, 1991). Cellular toxicity against separate cultures of confluent 2.2.15 cells was measured after treatment with the compounds for nine days under identical culture conditions as those used for the antiviral assay (Korba, B. E., et al. Antivir. Res., 19:55-70, 1992). Uptake of neutral red dye by treated cells was compared with dye uptake by untreated control cells (Korba, B. E., et al. Antivir. Res., 19:55-70, 1992).

[2] = target: T1, bacteriophage T7 RNA polymerase (Escherichia phage T7, UniProt P00573); experiment: Transcription catalyzed by T7 RNA polymerase; assay type: biochemical
T1 construct: purchased Promega P2075
Experimental: To show whether the “fat” nucleotide Compound 15-2 (FNTP) is incorporated into RNA during transcription, experiments were performed using bacteriophage T7 RNA polymerase (RNAP) and a synthetic 42-mer DNA template shown below that is annealed to a 17-nucleotide promoter specific for T7 RNAP. This promoter-template enables the synthesis of 25-mer RNA, and the purine analogue may be incorporated in positions +1, +11, +13, +15, +21, +22, and +23.
Transcription reaction conditions were optimized with the use of ^32P CTP for labeling RNA transcripts. Polyacrylimide gel electrophoresis of the transcription products obtained from the 42-mer template, using 1 mM each of four natural NTPs, reveled a 25-mer RNA as the major product, together with shorter and longer labeled transcripts (FIG. 9, lane 1). The additional bands observed are consistent with the known ability of T7 RNA polymerase to add non-coded residues at the 3′-end of transcripts. (Milligan, J. F., et al., Nuc. Acids Res., 15, 8783-8798, 1987) With the use of 1 mM nucleotide Compound 15-2 (FNTP), the yield of transcription was reduced (lane 2).
With the use of a synthetic 37-mer DNA template, annealed to a 17-nucleotide promoter for T7 RNAP as shown below, a 20 nucleotide-long transcript RNA was obtained when the reaction mixture contained all four NTPs in appropriate concentrations, along with many shorter “abortive” fragments. (Milligan, J. F., et al., Nuc. Acids Res., 15, 8783-8798, 1987). For the reaction with modified nucleotide, typically
the concentration of the appropriate natural nucleotide was reduced. […] (Milligan, J. F., et al., Methods in Enzymol., 180, 51-63, 1989.) In the present experiments, the synthesis of RNA was compared under standard conditions (using 4 NTPs in 0.2 mM concentration each) with the synthesis of RNA by using an additional “fat” nucleoside triphosphate Compound 15-2 (FNTP) in varying (0.05-10 mM) concentrations. The reaction mixtures were incubated at 37° C. for 2 hours, and the products were denatured in a buffer containing urea. The products were separated by 20% polyacrylamide-urea gel electrophoresis and visualized by autoradiography.
Transcription samples (total volume 10 μL contained: 40 mM Tris-HCl pH 8.1 with 6 mM MgCl2, 5 mM dithiothreitol (DTT), 1 mM spermidine, 0.01% Triton-X 100, 50 μg/mL bovine serum albumin, 250 nM synthetic DNA template with a promotor for T7 RNAP, 4 units of T7 RNA polymerase, and 0.2 mM ribonucleoside triphosphates. A single α^32P-labeled NTP was added for labeling (typicallly 1 μL of 10 mCi/mL ). Inhibition assays were monitored with varying concentrations (0.05-10 mM) of nucleotide Compound 15-2. Polyacrylamide gel (20%) electrophoresis was performed on slab gels (18 cm×16 cm, or 35 cm×44 cm) containing 8M urea. […]

[3] = Neutral red uptake assay, stationary HFF cells; assay type: cell-based; conditions: human, read-out: Cytotoxicity (IC50), Neutral Red Uptake
Experimental: (B) Neutral Red Uptake Assay: Twenty-four hours prior to assay, HFF cells were plated into 96-well plates at a concentration of 2.5×10^4 cells/well. After 24 h, the media was aspirated, and […] of media containing drug was added to the first row of wells and then diluted serially 1:5 using the automated Cetus Liquid Handling System. The plates were then incubated in a Co2 incubator at 37° C. for 7 days. At this time the media/drug was removed, cells were washed, 200 μL/well of 0.01% neutral red in PBS was added, and the mixture was incubated for 1 h. The dye was removed, and the cells were washed using a Nunc Plate Washer. After the wash was removed, […] of 50% ethanol/1% aqueous acetic acid was added. The plates were placed on a rotating shaker for 15 min, and the optical densities were then read at 540 nm using a plate reader.
Data Analysis: Dose-response relationships were constructed by linearly regressing the percent inhibition of parameters derived in the preceding sections against log drug concentrations. Fifty-percent inhibitory (IC50) concentrations were calculated from the regression lines.

[4] = system: HCMV; experiment: Cytopathic effect (CPE) inhibition assay, CMV in HFF cells; conditions: for EC50: Human betaherpesvirus 5, HFF, 336 h, read-out: Antiviral Activity (EC50), anti-HCMV; for SI (Selectivity Index), Neutral Red Uptake: IC50 (neutral red, stationary HFF) divided by anti-HCMV EC50; for SI (Selectivity Index), HFF Cells: IC50 (rapidly growing HFF) divided by anti-HCMV EC50
Experimental: Cytopathic Effect (CPE) Inhibition Assay: Low passage HFF cells were seeded into 96-well tissue culture plates 24 h prior to use at a cell concentration of 2.5×10^5 cells/mL in 0.1 mL of MEM supplemented with 10% FBS. The cells were incubated for 24 h at 37° C. in a CO2 incubator. After incubation, the medium was removed, and 100 μL of MEM containing 2% FBS was added to all but the first row. In the first row, 125 μL of experimental drug was added in triplicate wells. Medium alone was added to both cell and virus control wells. The drug in the first row of wells was then diluted serially 1:5 throughout the remaining wells by transferring 25 μL using the Cetus Liquid Handling Machine. After a 1 h incubation, 100 μL of the appropriate virus concentration was added to each well, excluding cell control wells which received 100 μL of MEM. The virus concentration added was 2500 pfu per well. The plates were then incubated at 37° C. in a CO2 incubator for 14 days. An additional 50 μL of MEM was added on day 7. After the incubation period, media was aspirated, and the cells were stained with a 5% crystal violet/ethanol/formaldehyde solution for 4 h. The stain was then removed, and the plates were rinsed with tap water until all excess stain was removed. The plates were allowed to dry for 24 h and then read on a Bio-Tek Instruments Microplate reader at 630 nm.

[5] = Cell proliferation assay, rapidly growing HFF cells; assay type: cell-based; conditions: human, rapidly growing human foreskin fibroblast (HFF) cells; for IC50 at 72 h: rapidly growing HFF cells, read-out: Cytotoxicity (IC50), HFF Cells
Experimental: The toxicity of Compounds 14-1 and 14-2 was also measured in rapidly growing human foreskin fibroblast (HFF) cells and Daudi cells by cell proliferation assay (National Institute of Allergy and Infectious Diseases (NIAID), NIH, Bethesda, Md.). According to the assay method, the appropriate cells were seeded in six-well plates in MEM containing 10% FBS. Twenty four hours later, the cells were treated with several dilutions of the test compounds covering a range of 0.03-100 μg/ml. The plates were incubated in a CO2 incubator at 37° C. for 72h. The cells were washed after removing the media and subsequently released from the plate wells by the addition of 1 ml of 0.25% trypsin. The contents in the wells were mixed, diluted with Isotone III and counted using a Coulter counter. The CC50 values (concentration of compound giving 50% inhibition of cell proliferation) were calculated by linear regression analysis. Toxicity of Compound 14-1 was also evaluated in bone marrow precursor cells by previously published procedure (Sommadossi, J.-P., et al., Biochem. Pharmacol., 44:1921-1925, 1992).
(A) Cell Proliferation Assay: Twenty-four hours prior to assay, cells (HFF or Daudi) were seeded in six-well plates at a concentration of 2.5×10^4 cells per well in MEM containing 10% FBS. On the day of the assay, drugs were diluted serially in MEM containing 10% FBS at increments of 1:5 covering a range from […]. For drugs that had to be solubilized in DMSO, control wells receive MEM containing 10% DMSO. The media from the wells was then aspirated, and 2 mL of each drug concentration was added to each well. The cells were incubated in a CO2 incubator at 37° C. for 72 h. At the end of this time, the media-drug solution was removed, and the cells were washed. Trypsin-EDTA (0.25%, 1 mL) was added to each well and incubated until the cells started to come off the plate. The cell-media mixture was then pipeted up and down vigorously to break up the cell suspension and 0.2 mL of the mixture added to 9.8 mL of Isoton III and the cells were counted using a Coulter Counter. Each sample was counted three times with two replicate wells per sample. The IC50 values were calculated using a computer program.

[6] = target: T2, rabbit liver guanase (Oryctolagus cuniculus, UniProt G1T386); experiment: Inhibition of guanase (Examples 10 and 11); assay type: biochemical; conditions: Lineweaver-Burk plot; for Ki: Tris buffer pH 7.6, 21° C., substrate guanine
T2 construct: employing rabbit liver guanase; from tissue; host or cells: rabbit liver
T2 sequence (G1T386 1-454): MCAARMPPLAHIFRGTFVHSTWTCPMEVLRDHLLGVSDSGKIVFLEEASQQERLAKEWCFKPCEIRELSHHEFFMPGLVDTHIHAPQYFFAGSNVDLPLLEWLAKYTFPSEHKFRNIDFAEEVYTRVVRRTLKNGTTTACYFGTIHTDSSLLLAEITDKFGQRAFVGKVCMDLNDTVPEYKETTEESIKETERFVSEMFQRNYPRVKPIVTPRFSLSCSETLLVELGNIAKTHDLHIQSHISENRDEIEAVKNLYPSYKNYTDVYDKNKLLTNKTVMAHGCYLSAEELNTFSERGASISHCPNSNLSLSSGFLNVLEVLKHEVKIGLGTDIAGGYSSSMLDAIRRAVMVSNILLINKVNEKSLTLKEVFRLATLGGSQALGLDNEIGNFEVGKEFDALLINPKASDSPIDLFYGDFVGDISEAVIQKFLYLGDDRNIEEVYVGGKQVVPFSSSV
Text: The concentration of the inhibitor ranged from 4×10^−5 M to 8×10^−5 M (Example 7), and 4.4×10^−5 M to 8.9×10^−5 M (Example 8). The concentration of the enzyme used for each assay was 0.0082 units/mL.

T1 sequence (P00573 whole entry): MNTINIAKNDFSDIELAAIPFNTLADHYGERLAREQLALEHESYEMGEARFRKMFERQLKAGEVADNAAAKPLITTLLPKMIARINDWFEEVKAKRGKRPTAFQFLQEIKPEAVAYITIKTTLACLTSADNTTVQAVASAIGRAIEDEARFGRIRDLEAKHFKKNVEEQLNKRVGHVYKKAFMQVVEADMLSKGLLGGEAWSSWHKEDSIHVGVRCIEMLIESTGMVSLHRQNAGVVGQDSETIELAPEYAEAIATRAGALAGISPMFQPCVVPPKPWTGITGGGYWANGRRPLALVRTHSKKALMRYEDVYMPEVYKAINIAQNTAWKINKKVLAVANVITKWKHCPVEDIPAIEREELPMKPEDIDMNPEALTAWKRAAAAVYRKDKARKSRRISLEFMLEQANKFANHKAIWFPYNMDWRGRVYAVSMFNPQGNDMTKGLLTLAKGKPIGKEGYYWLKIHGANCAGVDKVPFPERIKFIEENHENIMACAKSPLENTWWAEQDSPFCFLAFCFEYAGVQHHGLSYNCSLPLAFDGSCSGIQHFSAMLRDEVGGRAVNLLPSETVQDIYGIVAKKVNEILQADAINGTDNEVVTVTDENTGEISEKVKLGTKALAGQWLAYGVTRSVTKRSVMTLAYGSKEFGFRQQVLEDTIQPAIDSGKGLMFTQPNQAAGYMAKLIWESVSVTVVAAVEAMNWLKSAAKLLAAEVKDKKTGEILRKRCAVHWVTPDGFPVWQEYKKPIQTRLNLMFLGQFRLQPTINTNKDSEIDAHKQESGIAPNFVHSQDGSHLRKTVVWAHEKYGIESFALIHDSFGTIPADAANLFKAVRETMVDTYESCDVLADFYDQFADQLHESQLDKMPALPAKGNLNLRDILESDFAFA

For `Nc1ccn([C@H]2CS[C@@H](CO)O2)c(=O)n1` [Compound 3TC, 2′,3′-dideoxy-L-3′-thiacytidine, reference compound], the EC90 ([1]; extracellular HBV virion DNA, read-out: EC90 Virion) was 198 ± 20 nM, the EC50 ([1]; extracellular HBV virion DNA, read-out: EC50 Virion) was 65 ± 10 nM and the EC90 ([1]; intracellular HBV DNA replicative intermediates, read-out: EC90 HBV RI) was 922 ± 85 nM. The EC50 ([1]; intracellular HBV DNA replicative intermediates, read-out: EC50 HBV RI) was 172 ± 19 nM.

In the case of `N=c1nc(N)nc(N)c2ncn([C@@H]3O[C@H](COP(=O)(O)OP(=O)(O)OP(=O)(O)O)[C@@H](O)[C@H]3O)c12` [Compound 15-2, 5′-triphosphate derivative of 4,6-diamino-8-imino-8H-1-β-D-ribofuranosylimidazo[4,5-e][1,3]diazepine], the “incorporation into RNA during transcription (substrate for T7 polymerase)” value ([2]; 42-mer DNA template) is reported as “not a substrate for T7 polymerase” and the “inhibition of T7 RNA polymerase-catalyzed transcription” value ([2]; 42-mer and 37-mer DNA templates, 0.05-10 mM) is reported as “inhibitor of T7 polymerase”.

For `O=C1c2nc(Br)n(Cc3ccccc3)c2N(Cc2ccccc2)C(=O)CN1Cc1ccccc1` [Compound 19, 3,4,7-Tribenzyl-2-bromo-4,5,7,8-tetrahydro-6H-imidazo [4,5-e][1,4]diazepine-5,8-dione], the IC50 at 7 days [3] was 88.1 µg/mL (≈ 171 µM), the EC50 [4] was 8.1 µg/mL (≈ 15.7 µM) and the “SI (Selectivity Index), Neutral Red Uptake” value [4] was 10.9. The “SI (Selectivity Index), HFF Cells” value [4] was 6.98, the melting point was 174 to 176 °C and the IC50 at 72 h [5] was 56.5 µg/mL (≈ 110 µM).

With `N=c1nc(N)c2nc[nH]c2c(N)n1` [Example 1, 4,8-Diamino-6-imino-1H-imidazo[4,5-e][1,3]diazepine] the melting point was > 220 °C.

Work on `N=c1nc(N)c2ncn(Cc3ccccc3)c2c(N)n1` [Example 3, 4,8-Diamino-1-benzyl-6-iminoimidazo[4,5-e][1,3]diazepine] yielded a melting point of 202 to 204 °C.

With `COC(=O)C1(N)NC(=O)c2[nH]cnc2NC1=O` (stereo not drawn) [Example 7, 6-Amino-6-methoxycarbonyl-4,5,7,8-tetrahydro-6H-imidazo[4,5-e]-[1,4]diazepine-5,8-dione] the “mode of inhibition of guanase” value [6] was “competitive inhibitors” and the Ki [6] was 190000 nM.

In the case of `COC(=O)C1(OC)NC(=O)c2[nH]cnc2NC1=O` (stereo not drawn) [Example 8, 6-Methoxy-6-methoxycarbonyl-4,5,7,8-tetrahydro-6H-imidazo[4,5-e][1,4]-diazepine-5,8-dione], the “mode of inhibition of guanase” value [6] is reported as “competitive inhibitors” and the Ki [6] is reported as 540000 nM.

With `Nc1nc(O)c2ncn(COC(CO)CO)c2n1` [Ganciclovir, reference compound] the IC50 at 7 days [3] was > 100 µg/mL, the EC50 [4] was 0.05 µg/mL (≈ 0.196 µM) and the “SI (Selectivity Index), Neutral Red Uptake” value [4] was >2000. For the same compound, the “SI (Selectivity Index), HFF Cells” value [4] was 800, the CC50 at 72 h ([5]; Rapidly growing HFF cells) was > 40 µg/mL and the IC50 at 72 h [5] was 40 µg/mL (≈ 157 µM).
